Consider three compounds from patent US20250288600A1, “USES OF FARNESOID X RECEPTOR AGONISTS” (priority 2022, published 2025).

For data set [1], the system named is mouse model of alcoholic steatohepatitis. The data set is described as follows: Mouse model of alcoholic steatohepatitis (ALD), Lieber-DeCarli ethanol diet, oral dosing Day 1-14. Type of data set: in vivo. The settings on record: for fibrosis as analyzed by Pico Sirius Red: 30 mpk, no fibrosis at baseline or in the vehicle group; for serum bile acids: versus vehicle treated ALD mice. From the text:
The objective of this study was to assess efficacy of the test articles obeticholic acid (OCA), Compound 1 and Compound 2 on liver and intestinal pathology in a mouse model of alcoholic steatohepatitis.
• Species: Mouse • Strain: C57BL/6J (JAX #000664) • Condition: Purpose-bred, naïve • Source: Jackson Laboratories • Number of Females: 138 (119 on study+19 spares) • Target Age at the 10 weeks
Diet: 5CR4 chow until Day −26; Lieber-DeCarli liquid diet Days […] to Day 15. Upon arrival at the Testing Facility, all animals were placed on PMI Nutrition International Certified Rodent Chow No. 5CR4 ad libitum. During the chow diet phase (until Day −26), the diet in meal form may be provided to individual animals as warranted by clinical signs (e.g., broken/damaged incisors or other health changes).
On Day −26, all animals received 50 mL ethanol diet (1% v/v ethanol). The percentage of alcohol in the liquid diet was increased by 1% v/v every day until reaching 5% (v/v) on day −22 and is maintained at 5% v/v until the end of the study.
Dose Route and timing: Oral Gavage (Group 2-7) Once Daily (Day 1-14). The first day of dosing was designated as Day 1. The dose formulations were stirred continuously during dosing. The doses were given using a syringe with attached gavage cannula.
Terminal plasma and tissue samples were gathered. Plasma was analyzed for TG, TC, ALT, AST, ALP, FGF15 (LCMS), TBIL, and endotoxin.
Frozen liver samples from main study were analyzed in duplicates for the estimation of liver lipids including triglycerides and cholesterol. Liver samples were kept on dry ice until transferred to sample management and stored in a freezer set to maintain […] until analysis.
The liver and small intestine collected from all animals in Groups 1-7 (Main Study) were fixed in 10% neutral buffered formalin for 24-48 hours and transferred to 70% EtOH, stored under ambient conditions and transferred to the histopathology lab at Testing Facility.
Formalin fixed liver tissues were trimmed to slides and stained with H&E and picrosirius red stains. Slides were scored by Charles River board certified veterinarian pathologists.
Formalin fixed small intestine tissues were trimmed to slides and stained with H&E and IHC antibodies (PV-1, ZO-1 and Occludin). Slides were scored by board certified veterinarian pathologists.

The target of a further data set is T1, TGR5 (Homo sapiens, UniProt Q8TDU6).
T1 sequence (Q8TDU6 1-330): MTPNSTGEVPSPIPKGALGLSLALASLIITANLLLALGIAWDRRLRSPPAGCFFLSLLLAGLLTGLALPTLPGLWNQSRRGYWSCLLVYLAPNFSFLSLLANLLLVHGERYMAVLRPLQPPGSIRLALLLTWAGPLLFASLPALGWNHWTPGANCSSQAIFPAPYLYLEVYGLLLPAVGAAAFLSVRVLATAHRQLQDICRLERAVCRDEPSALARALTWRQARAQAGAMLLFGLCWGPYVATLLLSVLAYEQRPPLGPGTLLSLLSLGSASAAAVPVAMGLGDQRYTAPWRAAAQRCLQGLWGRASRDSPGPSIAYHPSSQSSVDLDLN
The settings on record: cited from earlier work.

For data set [2] the following is noted: higher than OCA; cited from earlier work.
The conditions of data set [3]: like ursodeoxycholic acid; cited from earlier work.
The subject of another data set is healthy subjects. The data set is described as follows: Phase 1 dose-escalation study in healthy subjects.
For data set [4] the following is noted: promptly secreted in the bile mostly as such; cited from earlier work.
A further data set relates to dogs. Put plainly: Respiratory function safety pharmacology in dogs. The settings on record: single doses up to 300 mg/kg.
Another data set concerns male rats. Put plainly: Irwin study (neurologic function). Particulars: tested up to 180 mg/kg.

Structures are written as SMILES. “Also recorded” adds a separate entry of the source.

Regarding `CC[C@H]1[C@@H](O)C2C3CC[C@H]([C@H](C)CCC(=O)O)[C@@]3(C)C[C@H](O)C2[C@@]2(C)CCCC[C@@H]12` (stereo partly drawn) [Compound 2], the “fibrosis as analyzed by Pico Sirius Red” value in data set [1] was “minimal increase in fibrosis”. In data set [1] (high dose), the serum bile acids result is on record as “significantly lowered”. In data set [1] (terminal plasma), the bilirubin entry is given as “decreased” and the “serum ALP” value is “increased”. In addition, the “activity on TGR5” value on TGR5 was “no activity”.

Consider `CC[C@H]1[C@@H](O)[C@@H]2[C@H](CC[C@]3(C)[C@@H]([C@H](C)CCC(=O)O)CC[C@@H]23)[C@@]2(C)CC[C@@H](O)C[C@@H]12` [OCA, obeticholic acid, reference compound], for which, in data set [1], the “fibrosis as analyzed by Pico Sirius Red” value is listed as “minimal increase in fibrosis”. In addition, in data set [1] (Dose 30 mkd, PO QD Day 1-14, includes animals for PK), the “% Alive” value amounted to 53%.

Take `CC[C@H]1[C@@H](O)[C@@H]2[C@H]([C@@H](O)C[C@]3(C)[C@@H]([C@H](C)CCC(=O)O)CC[C@@H]23)[C@@]2(C)CC[C@@H](O)C[C@@H]12` [Compound 1, 3a,7a,11β-trihydroxy-6α-ethyl-5β-cholan-24-oic acid]: the “survival (in words)” value in data set [1] (10 mg/kg and 30 mg/kg groups) is reported as “improved survival better than OCA; also recorded: greatly improved survival”. Moreover, the “steatosis (graded 1-5 by a pathologist)” value in data set [1] (10 mpk group, liver histology) is “close to statistical significance”. In data set [1], the “fibrosis as analyzed by Pico Sirius Red” value was “minimal increase in fibrosis”. For the same compound, the serum bile acids entry in data set [1] (both doses) is “significantly lowered”. Further, the “water solubility relative to obeticholic acid (OCA)” value in data set [2] was 16 fold. In data set [3], the critical micellular concentration entry was “high”. Besides, the tolerability result in the data set on healthy subjects (5 mg once daily for 14-days) is reported as “well tolerated”. Moreover, the adverse events entry in the data set with healthy subjects (doses less than 50 mg, single or repeat doses, healthy subjects) is “no AEs of clinical concern”. Also, in data set [4], the hepatic residence time entry is “very low”. The respiratory function entry with dogs is given as “not affected”. Moreover, the neurologic function entry in the data set with male rats is listed as “did not alter neurologic function”.
